{"source": "patent US4442093A", "about": "“Method for administering 24,25-dihydroxycholecalciferol to persons suffering from hypercalcemia” (Kureha Kagaku Kogyo Kabushiki Kaisha, priority 1981, dated 1984)", "key": {"[1]": {"assay": "30-day repeated oral administration toxicity (Example 26)", "assay_type": "in vivo, ICR mouse", "settings": "10 to 1000 µg/kg/day p.o., 30 days", "method": "24R,25-(OH)2 -D3 was dissolved in Panacete® 810 containing 1% by weight of ethanol, and the solution was forcibly p.o. administered once a day for 30 continuous days to each male or female ICR mouse of the groups shown in Table 20 at each one of the daily dose rates also shown in Table 20.\nAs the control, Panacete 810 was solely and forcibly p.o. administered to the mice of the same strain once a day for 30 continuous days."}, "[2]": {"assay": "Acute oral mammalian toxicity", "design": "species or system male mouse of ICR-strain", "settings": "mouse, in vivo, read-out: LD50 (per os)", "method": "0.3 ml of ethanolic solution containing 150 mg of 24R,25-(OH)2 -D3 was suspended in 15 ml of Panacete® 810 (triglyceride ester of C8 and C10 -fatty acid, made by Nippon Oil & Fats Co., Ltd.) to obtain a suspension containing 2% by weight of ethanol. The thus prepared composition was orally administered to a group of male mouse of ICR-strain consisting of 10 animals at a dose rate of 150 mg of 24R,25-(OH)2 -D3 per kg."}, "[3]": {"system": "K-562 tumour cell derived from human leukemia", "assay": "Inhibition of proliferation of K-562 cells (Example 24)", "assay_type": "cell-based", "settings": "3 days", "method": "Cultured K-562 tumour cell derived from human leukemia, which proliferates in a suspended state in RPMI-1640 culture medium added with 10% by weight of fetal bovine serum was used in the following experiment.\nThe cells were cultured in the above-mentioned culture medium at an initial cell concentration of 1×10^5 cells/ml with or without adding 24R,25-(OH)2 -D3, which was placed in dishes kept in an incubator of an atmosphere consisting of 95% by volume of air and 5% by volume of gaseous carbon dioxide at 37° C. After culturing 3 days, the cultured medium was stained with tripan blue to count the total number of living cells. The results are shown in Table 18 with the specifically added substances into the culture medium other than fetal bovine serum of 10% by weight."}, "[4]": {"system": "inorganic phosphate in serum", "assay": "Serum inorganic phosphate in 5/6-nephrectomized rats (Example 18)", "assay_type": "in vivo, male Wistar rats", "settings": "hyperphosphatemia due to 5/6-nephrectomy", "method": "Ten milligrams of 24R,25-(OH)2 -D3 was dissolved in 10 ml of isopropyl alcohol and one ml of the thus obtained solution was admixed into 1,000 ml of distilled water under agitation. The thus obtained solution has the concentration of isopropyl alcohol of 0.1% by weight and the concentration of 24R,25-(OH)2 -D3 of 1 microgram/ml and was called as the composition for oral administration A (abbreviated and referred to as Composition A hereinafter). In a similar manner as the above, another composition for oral administration of the concentration of 24R,25-(OH)2 -D3 of 0.1 microgram/ml and the concentration of isopropyl alcohol of 0.1% by weight was prepared, and referred to hereinafter as Composition B.\nThirty male Wistar rats of average body weight of 200±30 g were subjected to operation of 5/6--nephrectomy.\nTen male Wistar rats of the same average body weight were subjected to sham operation. After one month of the operation, the above-mentioned Composition A or Composition B was given to each group (one group consisting of 10 animals) of the rats 6 times a week for 9 weeks to be taken ad lib. The amount of 24R,25-(OH)2 -D3 taken by each rat for a week was calculated from the total amount of water taken by the rats of the group, the total amount of water taken by the rats being actually measured week after week."}, "[5]": {"system": "inorganic phosphate in serum", "assay": "Serum inorganic phosphate in rats given puromycin aminonucleoside (Example 19)", "assay_type": "in vivo, male Wistar rats", "settings": "hyperphosphatemia due to puromycin-amino-nucleoside", "method": "Puromycin aminonucleoside (hereinafter abbreviated as AN) was dissolved in physiological saline solution to be the concentration of 15 mg of AN/ml.\nThe thus prepared solution was subcutaneously administered to […] in 9th to 10th week after birth divided equally into 3 groups once a day for continuous 5 days at a daily dose rate of 15 mg/kg body weight, and the administration of AN was suspended for the next 2 weeks. This cycle of 5 days of administration followed by 2 weeks of suspension of administration was repeated 5 times, and from the commencement of the 4th cycle, drinking water was substituted by one of the compositions for oral administration prepared in Example 18, namely, Composition A or Composition B to be taken ad lib by each one of the three groups of the rats for 38 days therefrom. […] As control, a group consisting of 8 male Wistar rats was used without giving AN and with the oral administration of aqueous 0.1% by weight isopropyl alcohol solution taken ad lib during the same 38 days as above. As comparative example, another group consisting of 8 male Wistar rats was used with the same administration of AN as in the test groups and with the oral administration of aqueous 0.1% by weight isopropyl alcohol taken ad lib as in the control group."}, "[6]": {"system": "inorganic phosphate in serum", "assay": "Serum inorganic phosphate in chronic renal failure patients under hemodialysis (Example 21)", "assay_type": "in vivo, human", "method": "Eight patients suffering from chronic renal failure under the treatment of hemodialysis two times a week while using a dialysate containing 9 to 10 mg/dl of calcium component were further treated by oral administration of 24R,25-(OH)2 -D3 in a form of the soft capsule composition obtained in Example 6 at a daily dose of 2 to 10 micrograms for 6 weeks, and the concentration of inorganic phosphate in the serum of each patient before the commencement of the administration and that after completion of the administration were determined by Molybdenum Blue method."}, "[7]": {"system": "calcium level in serum", "assay": "Serum calcium in normal fasted rats (Example 2)", "assay_type": "in vivo, male Wistar-rats", "method": "Four subgroups of male Wistar-rats (a subgroup consisting of 5 animals) were used as the test animals, and they were fasted one whole day before the test.\nTo the rats of the first group consisting of 2 subgroups, a solution of 24R,25-(OH)2 -D3 in the triglyceride ester used in Example 1 was orally administered once at a dose rate of 100 micrograms of the agent/kg body weight.\nTo the rats of the second group consisting of 2 subgroups, only the triglyceride used in Example 1 was administered orally, and while using them as control, the calcium level in their serum was determined as in the first group."}}, "data": [{"smiles": "C=C1CC[C@H](O)C/C1=C/C=C1\\CCC[C@]2(C)[C@@H]([C@H](C)CC[C@@H](O)C(C)(C)O)CC[C@@H]12", "note": "[24R,25-(OH)2 -D3]", "values": [{"measurement": "histopathological examination of organs", "setting": "[1]", "result": "no abnormal findings were obtained"}, {"measurement": "body weight", "setting": "[1]; all groups", "result": "no significant difference of body weight was observed"}, {"measurement": "weights of internal organs", "setting": "[1]; all groups", "result": "not significantly different"}, {"measurement": "LD50 at 336 h", "setting": "[2]", "result": "> 150", "unit": "mg/kg"}, {"measurement": "Number of K-562 cells after culture", "setting": "[3]; 1 microgram/ml", "result": "8.5 ×10^5 cells/ml"}, {"measurement": "Number of K-562 cells after culture", "setting": "[3]; 10 micrograms/ml", "result": "3.5 ×10^5 cells/ml"}, {"measurement": "inhibition at 1 µg/mL", "setting": "[3]; Homo sapiens, K562, 72 h, 1 microgram/ml, vs dimethylsulfoxide, read-out: Inhibition Rate of K-562 cells", "result": 14, "unit": "%"}, {"measurement": "inhibition at 10 µg/mL", "setting": "[3]; Homo sapiens, K562, 72 h, 10 micrograms/ml, vs dimethylsulfoxide, read-out: Inhibition Rate of K-562 cells", "result": 65, "unit": "%"}, {"measurement": "inorganic phosphate level in serum", "setting": "[4]", "result": "significant reduction of the inorganic phosphate level"}, {"measurement": "inorganic phosphate level in serum", "setting": "[5]", "result": "significant reduction of the inorganic phosphate level"}, {"measurement": "metastatic calcification (roentgenographic examination)", "setting": "[6]; all patients, after completion of the administration", "result": "metastatic calcification was not recognized"}, {"measurement": "Concentration of inorganic phosphorus after administration, average", "setting": "[6]; average of 8 patients, 2 to 10 µg/day, 6 weeks", "result": "4.36 ± 0.76", "unit": "mg/dL"}, {"measurement": "Concentration of inorganic phosphorus before administration, average", "setting": "[6]; average of 8 patients, baseline", "result": "6.63 ± 0.77", "unit": "mg/dL"}, {"measurement": "osteomalacia (bone biopsy)", "setting": "[6]; one patient, after completion of the administration", "result": "improvement of osteomalacia was confirmed"}, {"measurement": "Concentration of inorganic phosphorus after administration", "setting": "[6]; patient 1 (person fifteen), 8 µg/day, 6 weeks", "result": 4.9, "unit": "mg/dL"}, {"measurement": "Concentration of inorganic phosphorus before administration", "setting": "[6]; patient 1 (person fifteen), baseline", "result": 7.2, "unit": "mg/dL"}, {"measurement": "Concentration of inorganic phosphorus after administration", "setting": "[6]; patient 2 (person one), 6 µg/day, 6 weeks", "result": 4.7, "unit": "mg/dL"}, {"measurement": "Concentration of inorganic phosphorus before administration", "setting": "[6]; patient 2 (person one), baseline", "result": 6.7, "unit": "mg/dL"}, {"measurement": "Concentration of inorganic phosphorus after administration", "setting": "[6]; patient 3 (person five), 10 µg/day, 6 weeks", "result": 5.2, "unit": "mg/dL"}, {"measurement": "Concentration of inorganic phosphorus before administration", "setting": "[6]; patient 3 (person five), baseline", "result": 8.0, "unit": "mg/dL"}, {"measurement": "Concentration of inorganic phosphorus after administration", "setting": "[6]; patient 4 (person nine), 4 µg/day, 6 weeks", "result": 4.2, "unit": "mg/dL"}, {"measurement": "Concentration of inorganic phosphorus before administration", "setting": "[6]; patient 4 (person nine), baseline", "result": 5.8, "unit": "mg/dL"}, {"measurement": "Concentration of inorganic phosphorus after administration", "setting": "[6]; patient 5 (person eleven), 8 µg/day, 6 weeks", "result": 5.3, "unit": "mg/dL"}, {"measurement": "Concentration of inorganic phosphorus before administration", "setting": "[6]; patient 5 (person eleven), baseline", "result": 7.1, "unit": "mg/dL"}, {"measurement": "Concentration of inorganic phosphorus after administration", "setting": "[6]; patient 6 (person eighteen), 6 µg/day, 6 weeks", "result": 3.5, "unit": "mg/dL"}, {"measurement": "Concentration of inorganic phosphorus before administration", "setting": "[6]; patient 6 (person eighteen), baseline", "result": 6.3, "unit": "mg/dL"}, {"measurement": "Concentration of inorganic phosphorus after administration", "setting": "[6]; patient 7 (person eight), 2 µg/day, 6 weeks", "result": 3.5, "unit": "mg/dL"}, {"measurement": "Concentration of inorganic phosphorus before administration", "setting": "[6]; patient 7 (person eight), baseline", "result": 5.8, "unit": "mg/dL"}, {"measurement": "Concentration of inorganic phosphorus after administration", "setting": "[6]; patient 8 (person thirteen), 6 µg/day, 6 weeks", "result": 3.6, "unit": "mg/dL"}, {"measurement": "Concentration of inorganic phosphorus before administration", "setting": "[6]; patient 8 (person thirteen), baseline", "result": 6.1, "unit": "mg/dL"}, {"measurement": "inorganic phosphate level in serum", "setting": "[6]; patient of chronic renal failure given hemodialysis", "result": "significant reduction of the inorganic phosphate level in their serum to the normal level"}, {"measurement": "Calcium level in serum", "setting": "[7]; 2 h after 100 µg/kg oral", "result": "10.6 ± 0.3", "unit": "mg/dL"}, {"measurement": "Calcium level in serum", "setting": "[7]; 5 h after 100 µg/kg oral", "result": "10.5 ± 0.3", "unit": "mg/dL"}]}]}
